Measurements reported in patent EP0250134B1, “Method for combating swine dysentery” (IMCERA Group Inc., priority 1986, dated 1987).
In brackets after ≈: the same amount, converted by molar mass. Counter-ions that a name gives are not always drawn. Like-named read-outs stand apart in the source and are kept apart here.

Tested on: Treponema hyodysenteriae
Assay: in vitro Streak Plate Test Method (inhibition endpoint / MIC on trypticase soy blood agar)
Assay type: cell-based
Settings: for MIC: Brachyspira hyodysenteriae, 48 h; for MIC / Inhibition Endpoints: first number = growth occurred, second = no growth, 48 hrs at 39°C anaerobic
Procedure: The following test procedure was used to evaluate the anti-Treponema hyodysenteriae activity of the compounds in the present invention. This test procedure establishes the lowest concentration of the compounds that will inhibit the growth on cultures of Treponema hyodysenteriae in an in vitro Streak Plate Test Method.
Procedure: Stock solutions containing 10,000, 1,000, 100, 10, 1.0, and 0.1, micrograms per milliliters of the compound to be tested were prepared. The final dilutions to establish the test concentrations in the media were made by placing the correct volume of stock solution in a petri dish, adding the media (trypticase soy blood agar), and mixing before the media solidified. After the media solidified, the test cultures of Treponema hyodysenteriae were streaked onto the surface of the agar. Petri dishes containing media without test samples were also set up as culture controls and are inoculated in the same manner. All inoculated plates were incubated at 39°C in anaerobic jars for 48 hrs. Inhibition endpoints were then determined by observing the test plates for growth or no growth of the test cultures at the various concentrations of the compounds. If the culture growth occured at one concentration but not at the next higher concentration, the inhibitory endpoint or MIC (Minimum Inhibitory Concentration) was considered the higher concentration.
Referring to Table 1, the culture numbers refer to field isolate strains of Treponema hyodysenteriae. These field isolates were isolated in Illinois, Iowa, and Nebraska. The numbers giving the results in the Table are read as follows: the first number for each isolate and compound tested corresponds to the concentration in micrograms per milliliter where growth occurred and the second number corresponds to the concentration in micrograms per milliliter where no growth occurred.

[1] = Culture No. 8064 (field isolate)
[2] = Culture No. 8072 (field isolate)
[3] = Culture No. 8076 (field isolate)
[4] = Culture No. 8080 (field isolate)
[5] = Culture No. 8087 (field isolate)
[6] = Culture No. 8098 (field isolate)
[7] = Culture No. 8125 (field isolate)
[8] = Culture No. B-100 (field isolate)
[9] = Culture No. B-140 (field isolate)

Compound: CCC(C(=O)C(C)C(O)C(C)CCc1ccc(C)c(O)c1C(=O)O)C1OC(CC)(C2CCC(O)(CC)C(C)O2)CC1C (centres unmarked) [Lasalocid Na, reference compound]
- MIC (Culture No. 8064 (field isolate), read-out: Inhibition Endpoints): 1 to 5 µg/mL (≈ 1.69 to 8.46 µM)
- MIC (Culture No. 8072 (field isolate), read-out: Inhibition Endpoints): 1 to 5 µg/mL (≈ 1.69 to 8.46 µM)
- MIC (Culture No. 8076 (field isolate), read-out: Inhibition Endpoints): 1 to 5 µg/mL (≈ 1.69 to 8.46 µM)
- MIC (Culture No. 8080 (field isolate), read-out: Inhibition Endpoints): 0.5 to 1 µg/mL (≈ 0.846 to 1.69 µM)
- MIC (Culture No. 8087 (field isolate), read-out: Inhibition Endpoints): 1 to 5 µg/mL (≈ 1.69 to 8.46 µM)
- MIC (Culture No. 8098 (field isolate), read-out: Inhibition Endpoints): 1 to 5 µg/mL (≈ 1.69 to 8.46 µM)
- MIC (Culture No. 8125 (field isolate), read-out: Inhibition Endpoints): 1 to 5 µg/mL (≈ 1.69 to 8.46 µM)
- MIC (Culture No. B-100 (field isolate), read-out: Inhibition Endpoints): 0.5 to 1 µg/mL (≈ 0.846 to 1.69 µM)
- MIC (Culture No. B-140 (field isolate), read-out: Inhibition Endpoints): 1 to 5 µg/mL (≈ 1.69 to 8.46 µM)

Compound: CCC[C@@H]1C[C@@H](C(=O)N[C@@H]([C@H]2O[C@H](SC)[C@H](O)[C@@H](O)[C@H]2O)[C@@H](C)O)N(C)C1 [Lincomycin HCL, reference compound]
- MIC (read-out: Inhibition Endpoints, Culture No. 8064 (field isolate)): 10 to 50 µg/mL
- MIC (read-out: Inhibition Endpoints, Culture No. 8072 (field isolate)): 10 to 50 µg/mL
- MIC (read-out: Inhibition Endpoints, Culture No. 8076 (field isolate)): 10 to 50 µg/mL
- MIC (read-out: Inhibition Endpoints, Culture No. 8080 (field isolate)): 10 to 50 µg/mL
- MIC (read-out: Inhibition Endpoints, Culture No. 8087 (field isolate)): 10 to 50 µg/mL
- MIC (read-out: Inhibition Endpoints, Culture No. 8098 (field isolate)): 10 to 50 µg/mL
- MIC (read-out: Inhibition Endpoints, Culture No. 8125 (field isolate)): 10 to 50 µg/mL
- MIC (read-out: Inhibition Endpoints, Culture No. B-100 (field isolate)): 1 to 5 µg/mL
- MIC (read-out: Inhibition Endpoints, Culture No. B-140 (field isolate)): 0.05 to 0.1 µg/mL

Compound: Carriomycin Na [reference compound]
- Inhibition Endpoints [1]: .01-.05 µgs/ml
- Inhibition Endpoints [2]: <.01 µgs/ml
- Inhibition Endpoints [3]: <.01 µgs/ml
- Inhibition Endpoints [4]: .01-.05 µgs/ml
- Inhibition Endpoints [5]: .01-.05 µgs/ml
- Inhibition Endpoints [6]: <.01 µgs/ml
- Inhibition Endpoints [7]: <.01 µgs/ml
- activity compared to the controls (summary of Table 1): comparable activity

Compound: Co Lysocellin
- Inhibition Endpoints [1]: .05-.1 µgs/ml
- Inhibition Endpoints [2]: <.01 µgs/ml
- Inhibition Endpoints [3]: .05-.1 µgs/ml
- Inhibition Endpoints [4]: .05-.1 µgs/ml
- Inhibition Endpoints [5]: .05-.1 µgs/ml
- Inhibition Endpoints [6]: .05-.1 µgs/ml
- Inhibition Endpoints [7]: <.01 µgs/ml
- Inhibition Endpoints [8]: <.01 µgs/ml
- Inhibition Endpoints [9]: <.01 µgs/ml

Compound: Cu Lysocellin
- Inhibition Endpoints [1]: .1-.5 µgs/ml
- Inhibition Endpoints [2]: .05-.1 µgs/ml
- Inhibition Endpoints [3]: .05-.1 µgs/ml
- Inhibition Endpoints [4]: .1-.5 µgs/ml
- Inhibition Endpoints [5]: .1-.5 µgs/ml
- Inhibition Endpoints [6]: .05-.1 µgs/ml
- Inhibition Endpoints [7]: .1-.5 µgs/ml
- Inhibition Endpoints [8]: .1-.5 µgs/ml
- Inhibition Endpoints [9]: .1-.5 µgs/ml

Compound: Lysocellin Free Acid
- Inhibition Endpoints [1]: .1-.5 µgs/ml
- Inhibition Endpoints [2]: .01-.05 µgs/ml
- Inhibition Endpoints [3]: <.01 µgs/ml
- Inhibition Endpoints [4]: .1-.5 µgs/ml
- Inhibition Endpoints [5]: .05-.1 µgs/ml
- Inhibition Endpoints [6]: .05-.1 µgs/ml
- Inhibition Endpoints [7]: .01-.05 µgs/ml
- Inhibition Endpoints [8]: .01-.05 µgs/ml
- Inhibition Endpoints [9]: .01-.1 µgs/ml

Compound: Lysocellin Na
- Inhibition Endpoints [1]: .1-.5 µgs/ml
- Inhibition Endpoints [2]: .1-.5 µgs/ml
- Inhibition Endpoints [3]: .1-.5 µgs/ml
- Inhibition Endpoints [4]: .1-.5 µgs/ml
- Inhibition Endpoints [5]: .1-.5 µgs/ml
- Inhibition Endpoints [6]: .1-.5 µgs/ml
- Inhibition Endpoints [7]: .1-.5 µgs/ml
- Inhibition Endpoints [8]: .1-.5 µgs/ml
- Inhibition Endpoints [9]: .1-.5 µgs/ml

Compound: Mn Lysocellin
- Inhibition Endpoints [1]: .1-.5 µgs/ml
- Inhibition Endpoints [2]: .1-.5 µgs/ml
- Inhibition Endpoints [3]: .1-.5 µgs/ml
- Inhibition Endpoints [4]: .1-.5 µgs/ml
- Inhibition Endpoints [5]: .1-.5 µgs/ml
- Inhibition Endpoints [6]: .1-.5 µgs/ml
- Inhibition Endpoints [7]: .1-.5 µgs/ml
- Inhibition Endpoints [8]: .1-.5 µgs/ml
- Inhibition Endpoints [9]: .1-.5 µgs/ml

Compound: Na Zn Lysocellin
- Inhibition Endpoints [1]: 1.0-5.0 µgs/ml
- Inhibition Endpoints [2]: 1.0-5.0 µgs/ml
- Inhibition Endpoints [3]: 1.0-5.0 µgs/ml
- Inhibition Endpoints [4]: .5-1.0 µgs/ml
- Inhibition Endpoints [5]: 1.0-5.0 µgs/ml
- Inhibition Endpoints [6]: .1-.5 µgs/ml
- Inhibition Endpoints [7]: 1.0-5.0 µgs/ml
- Inhibition Endpoints [8]: 1.0-5.0 µgs/ml
- Inhibition Endpoints [9]: 1.0-5.0 µgs/ml

Compound: Ni Lysocellin
- Inhibition Endpoints [1]: .05-.1 µgs/ml
- Inhibition Endpoints [2]: <.01 µgs/ml
- Inhibition Endpoints [3]: .05-.1 µgs/ml
- Inhibition Endpoints [4]: .1-.5 µgs/ml
- Inhibition Endpoints [5]: .05-.1 µgs/ml
- Inhibition Endpoints [6]: .05-.1 µgs/ml
- Inhibition Endpoints [7]: <.01 µgs/ml
- Inhibition Endpoints [8]: <.01 µgs/ml
- Inhibition Endpoints [9]: <.01 µgs/ml

Compound: Zn Lysocellin
- Inhibition Endpoints [1]: .1-.5 µgs/ml
- Inhibition Endpoints [2]: .1-.5 µgs/ml
- Inhibition Endpoints [3]: .1-.5 µgs/ml
- Inhibition Endpoints [4]: .1-.5 µgs/ml
- Inhibition Endpoints [5]: .05-.1 µgs/ml
- Inhibition Endpoints [6]: .1-.5 µgs/ml
- Inhibition Endpoints [7]: .05-.1 µgs/ml
- Inhibition Endpoints [8]: .05-.1 µgs/ml
- Inhibition Endpoints [9]: .05-.1 µgs/ml
